Key:
Rattus norvegicus [1] = species: Rattus norvegicus; test: Inhibitory activity was determined in rat uterine preparations at a compound dose of 4 ng/mL; type: functional
Rattus norvegicus [2] = species: Rattus norvegicus; test: Inhibitory activity was determined in rat uterine preparations at a compound dose of 2 ng/mL; type: functional
Rattus norvegicus [3] = species: Rattus norvegicus; test: Inhibitory activity was determined in rat uterine preparations at a compound dose of 6 ng/mL; type: functional
Angiotensin II receptor [4] = target: T1, Angiotensin II receptor (Rattus norvegicus, UniProt P29089+P25095+P35351); test: Tested for inhibition of radioligand [Sar1,Ile5,8]AII binding to angiotensin II receptor in rat brain; type: tissue-based
T1 sequence (P29089 whole entry): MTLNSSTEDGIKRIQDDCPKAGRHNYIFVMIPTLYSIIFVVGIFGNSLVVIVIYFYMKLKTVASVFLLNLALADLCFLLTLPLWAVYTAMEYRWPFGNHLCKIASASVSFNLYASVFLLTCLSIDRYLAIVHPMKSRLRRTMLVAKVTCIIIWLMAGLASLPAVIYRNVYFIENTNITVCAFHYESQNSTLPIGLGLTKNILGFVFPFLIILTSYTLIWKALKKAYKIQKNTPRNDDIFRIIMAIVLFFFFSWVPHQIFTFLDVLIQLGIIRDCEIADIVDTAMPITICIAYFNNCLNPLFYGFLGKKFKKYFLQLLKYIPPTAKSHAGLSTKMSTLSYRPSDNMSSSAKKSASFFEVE
T1 sequence (P25095 whole entry): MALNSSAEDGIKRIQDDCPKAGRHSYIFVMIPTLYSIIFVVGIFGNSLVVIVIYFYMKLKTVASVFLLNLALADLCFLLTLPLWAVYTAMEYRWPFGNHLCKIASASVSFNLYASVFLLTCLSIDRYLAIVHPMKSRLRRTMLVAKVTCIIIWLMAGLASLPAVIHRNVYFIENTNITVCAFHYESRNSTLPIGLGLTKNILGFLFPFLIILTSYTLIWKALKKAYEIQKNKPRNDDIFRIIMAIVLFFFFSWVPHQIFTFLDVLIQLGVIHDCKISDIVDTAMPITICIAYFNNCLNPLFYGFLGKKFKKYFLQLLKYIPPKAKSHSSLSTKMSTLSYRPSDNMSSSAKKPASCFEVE
T1 sequence (P35351 whole entry): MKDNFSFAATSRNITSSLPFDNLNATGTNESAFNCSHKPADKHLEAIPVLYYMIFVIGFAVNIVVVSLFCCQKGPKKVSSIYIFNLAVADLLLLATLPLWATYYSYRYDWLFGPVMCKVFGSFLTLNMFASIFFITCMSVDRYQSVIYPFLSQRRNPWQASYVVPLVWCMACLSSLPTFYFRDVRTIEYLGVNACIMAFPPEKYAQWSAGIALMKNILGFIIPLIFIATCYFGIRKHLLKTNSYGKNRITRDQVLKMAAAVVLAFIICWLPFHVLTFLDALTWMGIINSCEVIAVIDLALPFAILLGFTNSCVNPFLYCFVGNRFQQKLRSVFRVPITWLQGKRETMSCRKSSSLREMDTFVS

Angiotensin II receptor [5] = target: T1, Angiotensin II receptor; test: Tested for inhibition of radioligand [Sar1,Ile5,8]AII binding to angiotensin II receptor in rat uterus
Rattus norvegicus [6] = species: Rattus norvegicus; test: Agonistic activity in rat uterine preparations; type: functional
[7] = target: T2, Angiotensin II receptor (Rattus norvegicus) (UniProt P29089+P25095+P35351); test: Inhibitory activity was determined against Angiotensin II receptor in rat uterine preparations at a compound dose of 4 ng/mL
Rattus norvegicus [8] = species: Rattus norvegicus; test: Time period for the pressor response of angiotensin II to return to 50% of its treatment level at a compound dose of 60 ug; type: functional, organism-based
Rattus norvegicus [9] = species: Rattus norvegicus; test: Time period for the pressor response of angiotensin II to return to 50% of its treatment level at a compound dose of 10 ug; type: functional, organism-based
[10] = target: T2, Angiotensin II receptor (Rattus norvegicus); test: Inhibitory activity was determined against Angiotensin II receptor in rat uterine preparations at a compound dose of 2 ng/mL
Rattus norvegicus [11] = species: Rattus norvegicus; test: Time period for the pressor response of angiotensin II to return to 50% of its treatment level at a compound dose of 30 ug; type: functional, organism-based
[12] = target: T2, Angiotensin II receptor (Rattus norvegicus); test: Inhibitory activity was determined against Angiotensin II receptor in rat uterine preparations at a compound dose of 6 ng/mL

CNCC(=O)N[C@@H](CCCN=C(N)N)C(=O)N[C@H](C(=O)N[C@@H](Cc1ccc(O)cc1)C(=O)N[C@H](C(=O)N[C@@H](Cc1c[nH]cn1)C(=O)N1CCC[C@H]1C(=O)N[C@@H](Cc1ccc(-c2ccccc2)cc1)C(=O)O)C(C)C)C(C)C [listing 1 of 2 here] gave an Activity (Rattus norvegicus [1]) of 71.7, an Activity (Rattus norvegicus [2]) of 9.2 and an Activity (Rattus norvegicus [3]) of 208.2.

CNCC(=O)N[C@@H](CCCN=C(N)N)C(=O)N[C@H](C(=O)N[C@@H](Cc1ccc(O)cc1)C(=O)N[C@H](C(=O)N[C@@H](Cc1c[nH]cn1)C(=O)N1CCC[C@H]1C(=O)N[C@H](Cc1ccc(-c2ccccc2)cc1)C(=O)O)C(C)C)C(C)C [listing 1 of 2 here] showed a Ki (Angiotensin II receptor [4]) of 0.46 nM and a Ki (Angiotensin II receptor [5]) of 0.74 nM.

For CNCC(=O)N[C@@H](CCCN=C(N)N)C(=O)N[C@H](C(=O)N[C@@H](Cc1ccc(O)cc1)C(=O)N[C@H](C(=O)N[C@@H](Cc1c[nH]cn1)C(=O)N1CCC[C@H]1C(=O)N[C@@H](C(=O)O)C(c1ccccc1)c1ccccc1)C(C)C)C(C)C [listing 1 of 2 here], the Activity (Rattus norvegicus [6]) was 48%.

CNCC(=O)N[C@@H](CCCN=C(N)N)C(=O)N[C@H](C(=O)N[C@@H](Cc1ccc(O)cc1)C(=O)N[C@H](C(=O)N[C@@H](Cc1c[nH]cn1)C(=O)N1CCC[C@H]1C(=O)NC1(C(=O)O)Cc2ccccc2C1)C(C)C)C(C)C [listing 1 of 2 here] was tested, and the Ki (Angiotensin II receptor [4]) was 1.82 nM and the Ki (Angiotensin II receptor [5]) was 1.52 nM.

Work on CNCC(=O)N[C@@H](CCCN=C(N)N)C(=O)N[C@H](C(=O)N[C@@H](Cc1ccc(O)cc1)C(=O)N[C@H](C(=O)N[C@@H](Cc1c[nH]cn1)C(=O)N1CCC[C@H]1C(=O)NC1(C(=O)O)Cc2ccccc2C1)C(C)C)C(C)C [listing 2 of 2 here] yielded an Activity (Rattus norvegicus [1]) of 16.2, an Activity (Rattus norvegicus [2]) of 8.7 and an Activity (Rattus norvegicus [3]) of 31.8.

CNCC(=O)N[C@@H](CCCN=C(N)N)C(=O)N[C@H](C(=O)N[C@@H](Cc1ccc(O)cc1)C(=O)N[C@H](C(=O)N[C@@H](Cc1c[nH]cn1)C(=O)N1CCC[C@H]1C(=O)N[C@@H](Cc1ccc(-c2ccccc2)cc1)C(=O)O)C(C)C)C(C)C [listing 2 of 2 here] showed a Ki (Angiotensin II receptor [4]) of 1 nM and a Ki (Angiotensin II receptor [5]) of 1.74 nM.

In the case of CNCC(=O)N[C@@H](CCCN=C(N)N)C(=O)N[C@H](C(=O)N[C@@H](Cc1ccc(O)cc1)C(=O)N[C@H](C(=O)N[C@@H](Cc1c[nH]cn1)C(=O)N1CCC[C@@H]1C(=O)N[C@H](CC(C)C)C(=O)O)C(C)C)C(C)C, the Activity [7] is reported as 3.9, the Recovery time (Rattus norvegicus [8]) is reported as 83 min and the Recovery time (Rattus norvegicus [9]) is reported as 34 min. The Activity [10] was 1.7, the Recovery time (Rattus norvegicus [11]) was 72 min and the Activity [12] was 22.2.

Molecule CNCC(=O)N[C@@H](CCCN=C(N)N)C(=O)N[C@H](C(=O)N[C@@H](Cc1ccc(O)cc1)C(=O)N[C@H](C(=O)N[C@@H](Cc1c[nH]cn1)C(=O)N1CCC[C@H]1C(N)=O)C(C)C)C(C)C has a Ki (Angiotensin II receptor [4]) of 9310 nM and a Ki (Angiotensin II receptor [5]) of 52.8 nM.

For CNCC(=O)N[C@@H](CCCN=C(N)N)C(=O)N[C@H](C(=O)N[C@@H](Cc1ccc(O)cc1)C(=O)N[C@H](C(=O)N[C@@H](Cc1c[nH]cn1)C(=O)N1CCC[C@H]1C(=O)N[C@H](C(=O)O)C(c1ccccc1)c1ccccc1)C(C)C)C(C)C [listing 1 of 2 here], the Ki (Angiotensin II receptor [4]) was 0.85 nM and the Ki (Angiotensin II receptor [5]) was 1.23 nM.

With H-NRVYVHPF-OH [ANGIOTENSIN AMIDE] the Ki (Angiotensin II receptor [4]) was 1.64 nM, the Ki (Angiotensin II receptor [5]) was 5.48 nM and the Activity (Rattus norvegicus [6]) was 100%.

CNCC(=O)N[C@@H](CCCN=C(N)N)C(=O)N[C@H](C(=O)N[C@@H](Cc1ccc(O)cc1)C(=O)N[C@H](C(=O)N[C@@H](Cc1c[nH]cn1)C(=O)N1CCC[C@H]1C(=O)N[C@H](Cc1ccc(-c2ccccc2)cc1)C(=O)O)C(C)C)C(C)C [listing 2 of 2 here] showed an Activity (Rattus norvegicus [1]) of 24.6, an Activity (Rattus norvegicus [2]) of 7.2 and an Activity (Rattus norvegicus [3]) of 44.7.

For CNCC(=O)N[C@@H](CCCN=C(N)N)C(=O)N[C@H](C(=O)N[C@@H](Cc1ccc(O)cc1)C(=O)N[C@H](C(=O)N[C@@H](Cc1c[nH]cn1)C(=O)N1CCC[C@H]1C(=O)N[C@H](C(=O)O)C(c1ccccc1)c1ccccc1)C(C)C)C(C)C [listing 2 of 2 here], the Activity (Rattus norvegicus [6]) was 284%.

Work on CNCC(=O)N[C@@H](CCCN=C(N)N)C(=O)N[C@H](C(=O)N[C@@H](Cc1ccc(O)cc1)C(=O)N[C@H](C(=O)N[C@@H](Cc1c[nH]cn1)C(=O)N1CCC[C@H]1C(=O)N[C@@H](C(=O)O)C(c1ccccc1)c1ccccc1)C(C)C)C(C)C [listing 2 of 2 here] yielded a Ki (Angiotensin II receptor [4]) of 1.64 nM and a Ki (Angiotensin II receptor [5]) of 6.08 nM.
